The text below walks through data of patent publication US6017933A, “Mannich bases of conjugated styryl ketones” (University of Saskatchewan Technologies Inc., priority 1999, dated 2000).

Values after ≈ are worked out from the molar mass of the structure shown. Values joined by “and” are separate entries in the source; they are usually repeats but may differ in a detail not shown here. Equal values may be shown once. “Also recorded” adds a separate entry of the source. Where a name gives a salt, the structure may show the parent alone. Read-outs that look alike come from different tables or passages of the source.

For data set [1], the system named is P388 lymphocytic leukemia. The settings on record: 20 mg/kg intraperitoneally for five days; cited from earlier work.
Data set [2] deals with Aspergillus fumigatus conidia. In words: Kill-curve experiment, Aspergillus fumigatus conidia. In kind it is cell-based. As for the experimental part:
Kill-Curve Experiment: 5 ml conidial suspension each of the AMB-, and ITZ-susceptible (W73355) and the resistant (AB16.4 and ITZ70) isolates prepared in PYG broth (1×10^6 conidia/ml) was incubated at 35° C. in the presence of 5 μm of AMB or 5 μm ITZ or 50 μm Compound 9b. At various time intervals, 0.1 ml aliquots of the conidial suspension were removed, diluted appropriately to obtain 10^2 to 10^4 fold dilution, and 0.1 ml aliquots were spread in duplicate on PYG agar plates. […] Identical treatment of the conidial suspension in the absence of the drug was used as the growth control.

Data set [3] has as its system Aspergillus fumigatus. In words: Murine pulmonary aspergillosis model. The format is in vivo, Aspergillus fumigatus in DBA/2J female mice. As for the experimental part: In vivo susceptibility studies: DBA/2J female mice (Jackson Laboratories) weighing 20-23 grams (≈6 weeks old) were used. The mice were immunosuppressed by 3 consecutive subcutaneous injections (0.5 ml each) of cortisone acetate (250 mg/kg; Sigma Chemical Company) in sterile distilled water containing 0.1% Tween 80. The immunosuppressed mice were anesthetized by exposing to ether in a desiccator for 45±5 seconds and infected with 20 μl inoculum containing 1×10^6 conidia delivered to the nares of the animals as a single droplet from a micropipet. Compound 9b and AMB were dissolved in dimethyl sulfoxide (DMSO) and administered 24 hr post infection by intraperitoneal injection in 0.2 ml PBS per dose. […] The efficacy of chemotherapy was assessed by determining percent survival and the fungal load (CFU/lungs) of infected animals as determined by semiquantitative organ culture.

Data set [4] relates to AMB-resistant Aspergillus fumigatus. The experiment in a line: MIC and MLC, AMB-resistant Aspergillus fumigatus, broth macrodilution. The conditions noted are these: for MIC: 48 h.
In data set [5] the test system is ITZ-resistant Aspergillus fumigatus. In words: MIC and MLC, ITZ-resistant Aspergillus fumigatus, broth macrodilution. The settings on record: for MIC: 48 h.
The test system of data set [6] is Candida albicans. The conditions noted are these: C. albicans; cited from earlier work.
The subject of data set [7] is Aspergillus fumigatus. In words: MIC and MLC, Aspergillus fumigatus, broth macrodilution.
Data set [8] relates to Candida albicans. In words: Vaginal candidiasis in ovariectomized rats. In kind it is in vivo, Candida albicans in ovariectomized rats. The settings on record: in Mineral Oil. As for the experimental part:
As well, ovariectomized rats predisposed for Candida albicans infection by estrogen treatment were infected vaginally with 1×10^7 CFU per ml to produce vaginal candidiasis. The infected animals were treated with Compound 9b once daily (100 mg/kg=2 mg/[…]) for 5 days. Vaginal fluid was collected from each animal 72 hr post-treatment and CFUs per rat were determined by plating the […] fluid on PYG agar containing 200 ug/ml gentamicin.

Data set [9] has as its system Molt 4/C8 cells. The experiment in a line: Cytotoxicity, Molt 4/C8 human T-lymphocytes. The conditions noted are these: for TIL1210 (Molt 4/C8 cells): IC50 T-lymphocytes (Molt 4/C8)/IC50 L1210; for TIP388 (Molt 4/C8 cells): IC50 T-lymphocytes (Molt 4/C8)/IC50 P388; for TIht (Molt 4/C8 cells): IC50 T-lymphocytes (Molt 4/C8)/IC50 human tumors.
The subject of data set [10] is pathogenic yeasts and filamentous fungi. The experiment in a line: Screening of conjugated styryl ketones against pathogenic yeasts and filamentous fungi. In kind it is cell-based. From the text:
Approximately 90 compounds belonging to the conjugated styryl ketone class were screened for their activity against pathogenic yeasts and filamentous fungi. […] Since none of the previously examined compounds provided encouraging results for further studies, a series of α,β-unsaturated ketones with two sites for thiol alkylation reaction were synthesized.

For data set [11], the system named is L1210 cells. The experiment in a line: Cytotoxicity, murine L1210 leukemic cells. In kind it is cell-based. The settings on record: Mus musculus, mean.
The subject of data set [12] is human tumors. In words: Cytotoxicity, human tumor cell line panel (approximately 55 lines).
Data set [13] has as its system P388 cells. The experiment in a line: Cytotoxicity, murine P388 leukemic cells (P388 D1). The conditions noted are these: read-out: P388 cells IC50.
The subject of data set [14] is CEM cells. In words: Cytotoxicity, CEM human T-lymphocytes. The conditions noted are these: for IC50: Homo sapiens, CCRF-CEM; for TIL1210 (CEM cells): IC50 T-lymphocytes (CEM)/IC50 L1210; for TIP388 (CEM cells): IC50 T-lymphocytes (CEM)/IC50 P388; for TIht (CEM cells): IC50 T-lymphocytes (CEM)/IC50 human tumors.
Data set [15] has as its system human tumors.
Data set [16] deals with SW-620. The settings on record: in vivo; cited from earlier work.
The subject of data set [17] is CAKI-1. The conditions noted are these: in vivo; cited from earlier work.
The test system of data set [18] is LOX IMVI. The settings on record: in vivo; cited from earlier work.
Data set [19] has as its system COLO 205. The conditions noted are these: in vivo; cited from earlier work.
Data set [20] deals with NCI-H522. The settings on record: in vivo; cited from earlier work.
The test system of data set [21] is proton translocating ATPase of Saccharomyces cerevisiae. The conditions noted are these: cited from earlier work.
Setting [22] is: Aspergillus fumigatus, 48 h, read-out: MIC Mean ± SD.
[23] abbreviates: Aspergillus fumigatus, 48 h, read-out: MIC Range.
The mark [24] stands for this setting: read-out: human tumors IC50, mean graph midpoint, approximately 55 cell lines, hydrobromide salts used for 4a, 11a-e.

Take `O=c1[nH]cc(F)c(=O)[nH]1` [5-fluorouracil]: the “ILS, murine P388 (reference drug)” value in [1] is listed as more than 35.
In general, MIC refers to the smallest concentration in the dilution series that meets the test's criterion for growth inhibition. `C[C@@H]1[C@H](O)[C@@H](C)/C=C/C=C/C=C/C=C/C=C/C=C/C=C/[C@H](O[C@@H]2O[C@H](C)[C@@H](O)[C@H](N)[C@@H]2O)C[C@@H]2O[C@](O)(C[C@@H](O)C[C@@H](O)[C@H](O)CC[C@@H](O)C[C@@H](O)CC(=O)O[C@H]1C)C[C@H](O)[C@H]2C(=O)O` [Amphotericin B] had a killing at 5 µM in data set [2] (Aspergillus fumigatus, 5 μm AMB or 5 μm ITZ, within 24 hr) not below 99%. The “reduction of CFU/lung” value in data set [3] (2 mg/kg/day) was “≈ 66%”. In addition, the MIC in [4] (read-out: MIC Mean ± SD) is 6.64 ± 3.47 µM (≈ 6.14 µg/mL); in data set [4] (read-out: MIC Range) it was 4.42 to 17.7 µM (≈ 4.08 to 16.4 µg/mL); in data set [5] (read-out: MIC Mean ± SD), 0.7 ± 0.39 µM (≈ 0.647 µg/mL); in [5] (read-out: MIC Range), 0.27 to 1.11 µM (≈ 0.25 to 1.03 µg/mL); in [7] (setting [22]), 1.32 ± 0.63 µM (≈ 1.22 µg/mL); in [7] (setting [23]), 0.55 to 2.22 µM (≈ 0.508 to 2.05 µg/mL). Moreover, the “mean MIC” value in data set [6] is reported as approximately 0.6 μm.
For `CCN1CCC(O)(/C=C/c2ccc(Cl)cc2)C(C(=O)/C=C/c2ccc(Cl)cc2)C1` (centres unmarked) [Compound 9b, (3-[3-(4-chlorophenyl)-2-propenoyl]-4-[2-(4-chlorophenyl)vinylene]-1-ethyl-4-piperidinol hydrochloride], the killing at 50 µM in data set [2] (Aspergillus fumigatus, 50 μm, within 24 hr) was not below 90%. Moreover, the “fungicidal activity against AMB-resistant and ITZ-resistant isolates” value in [2] (data not shown) is “as susceptible to the fungicidal activity of Compound 9b as the susceptible one”. Moreover, in data set [8], the “% CFU reduction” value was found to be 97.4%. In addition, in data set [8] (mean of 6 animals, S.D. 1.7 × 10^4), the “Mean Value CFU/rat” value is reported as 1.2 × 10^4 CFU/rat. Besides, in [8] (individual animals, 100 mg/kg once daily for 5 days, 72 hr post-treatment, hydrochloride, 100 mg/kg), the CFU/rat is 4.6 × 10^4 CFU/rat and 4.2 × 10^3 CFU/rat and 8.3 × 10^2 CFU/rat and 1.7 × 10^4 CFU/rat and 3.5 × 10^2 CFU/rat and 6.5 × 10^3 CFU/rat. Further, in [9], the “TIL1210 (Molt 4/C8 cells)” value is 4.46. The “TIP388 (Molt 4/C8 cells)” value in [9] stood at 28.24. Further, the “TIht (Molt 4/C8 cells)” value in data set [9] is given as 1.21. Also, the IC50 in data set [9] (read-out: IC50 Molt 4/C8) was 31.1 µM; in data set [9] (read-out: Molt 4/C8 cells IC50), 31.1 µM; in data set [11] it was 6.96 µM; in [12] (setting [24]), 25.7 µM; in data set [12] (read-out: mean IC50 value for 55 different human tumour cells) it was 25.7 µM; in data set [13], 1100 nM. The IC50 in [14] (read-out: CEM cells IC50) and in [14] (read-out: IC50 CEM) was 20.1 µM in each case. The “antifungal activity (in words)” value in data set [10] was “activity against both pathogenic yeasts and filamentous fungi at low concentrations”. In addition, the “reduction in CFU/lung” value in data set [3] (6.25 mg/kg/day) is reported as 50%. For the same compound, in [3] (6.5 mg/kg/day for five days, mice), the mortality rate result was “did not show any greater mortality rate than the placebo or the AMB-treated groups”. The “fungal load of infected animals (in words)” value in [3] (mouse, in vivo, hydrochloride) is given as “reduced significantly; also recorded: not as efficient as AMB for the reduction of fungal load”. In [3] (vs DMSO placebo), the “survival of infected animals” value was “did not improve significantly over the placebo group”. The MIC in [4] (read-out: MIC Mean ± SD) is 9.85 ± 3.53 µM; in data set [4] (read-out: MIC Range) it was 6.25 to 12.5 µM; in [5] (read-out: MIC Mean ± SD) it was 10.9 ± 6.35 µM; in data set [5] (read-out: MIC Range), 3.12 to 25 µM; in data set [7] (setting [22]) it was 11.9 ± 5.32 µM; in [7] (setting [23]), 6.25 to 25 µM. Besides, the minimum inhibitory concentration (MIC) in data set [7] (Aspergillus fumigatus, read-out: mean MIC value) was found to be 11.9 µM. The MFC is 12 to 25 µM in [4] (read-out: MLC Range); 6.25 to 25 µM in [5] (read-out: MLC Range); 12.5 to 25 µM in data set [7] (Aspergillus fumigatus, read-out: MLC Range). The “IC50 relative to mean MIC for Aspergillus fumigatus” value in data set [12] (mammalian cells (human tumor; b359 also Molt 4/C8 and CEM)) is 2-3 fold. For the same compound, the “TIL1210 (CEM cells)” value in data set [14] is reported as 2.89. Further, the “TIP388 (CEM cells)” value in data set [14] was determined as 18.31. Besides, in [14], the “TIht (CEM cells)” value amounted to 0.78. Further, in data set [7] (susceptible isolates), the “effectiveness compared with ITZ and AMB” value is “less effective than ITZ and AMB in susceptible isolates”. The “MLC values relative to MIC values” in data set [7] (various Aspergillus fumigatus isolates) is listed as “either the same as or twofold higher than the MIC values”.
Take `CC[N+]1(C)CCC(O)(/C=C/c2ccc(Cl)c(Cl)c2)C(C(=O)/C=C/c2ccc(Cl)c(Cl)c2)C1` (centres unmarked) [Compound 10c]: the “TIL1210 (Molt 4/C8 cells)” value in [9] is 1.12. Moreover, the “TIP388 (Molt 4/C8 cells)” value in [9] is reported as 37.56. In [9], the “TIht (Molt 4/C8 cells)” value stood at 10.98. For the same compound, the IC50 in data set [9] (read-out: Molt 4/C8 cells IC50) came out at 24 µM; in data set [11] it was 21.4 µM; in data set [12] (setting [24]) it was 2.19 µM; in data set [13], 640 nM; in [14] (read-out: CEM cells IC50), 16.5 µM. Besides, the “TIL1210 (CEM cells)” value in [14] stood at 0.77. Besides, in data set [14], the “TIP388 (CEM cells)” value was 25.78. In addition, in data set [14], the “TIht (CEM cells)” value was 7.53. Besides, in [15], the “activity relative to compound 12c, human tumors” value amounted to 4.36 times.
Regarding `O=P1(N(CCCl)CCCl)NCCCO1` (centres unmarked) [cyclophosphamide], the “activity towards SW-620 xenograft” value in data set [16] is “inactive”. The “reduction of growth of CAKI-1 tumor” value in [17] is on record as 60-100%. Also, in data set [18], the “reduction of growth of LOX IMVI tumor” value is 100-150%. The “activity towards COLO 205 xenograft” value in data set [19] is “inactive”. The “activity towards NCI-H522 xenograft” value in [20] is “inactive”.
Turning to `COc1ccc2[nH]c([S+]([O-])Cc3ncc(C)c(OC)c3C)nc2c1` (centres unmarked) [omeprazole], the “inhibition of proton translocating ATPase” value in data set [21] was “inhibited the proton translocating ATPase of Saccharomyces cerevisiae”.
